The source of these data is patent publication US10513521B2, “Compositions and methods for inhibiting BMP” (The Brigham and Women's Hospital, Inc., priority 2014, dated 2019).

The target in assay [1] is T1, ALK2 (Mus musculus, UniProt P37172).
T1 construct: The C2C12 cell line was selected for the measurement of ALK2 activity using BMP6 as the agonist; host or cells: C2C12
T1 sequence (P37172 21-509): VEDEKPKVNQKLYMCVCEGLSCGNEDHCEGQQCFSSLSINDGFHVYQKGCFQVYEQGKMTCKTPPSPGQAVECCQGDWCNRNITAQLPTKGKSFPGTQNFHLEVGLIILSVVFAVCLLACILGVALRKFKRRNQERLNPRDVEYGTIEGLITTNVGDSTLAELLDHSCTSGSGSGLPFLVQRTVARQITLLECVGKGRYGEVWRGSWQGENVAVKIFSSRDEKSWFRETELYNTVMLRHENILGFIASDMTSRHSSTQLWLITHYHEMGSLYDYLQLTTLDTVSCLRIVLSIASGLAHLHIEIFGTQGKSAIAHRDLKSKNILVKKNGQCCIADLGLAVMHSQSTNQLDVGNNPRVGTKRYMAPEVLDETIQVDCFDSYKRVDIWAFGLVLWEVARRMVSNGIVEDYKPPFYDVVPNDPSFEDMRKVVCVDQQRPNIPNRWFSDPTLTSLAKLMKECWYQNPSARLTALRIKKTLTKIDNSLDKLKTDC
As to the kind of experiment: HTRF pSMAD1 cell-based ALK2 assay (C2C12 cells, BMP6 as agonist). Particulars: cell-based assay, BMP6; read-out: Cell IC50 BMP6. The gist of the method: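 Phospho-SMAD1 HTRF readout, detection incubated overnight at room temperature. Before that: starved cells in 0.1% FBS for 4 h, 30 min compound pretreatment, then 30 min agonist, BMP6 on C2C12 or BMP9 on BAOEC.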
For orientation: In TR-FRET formats the signal depends on donor and acceptor labels being close together.

A short description of assay [2]: Cell-based assay, TGFb1 (Cell IC50).
The target in a further assay is ALK1 (Homo sapiens, UniProt P37023). Description: TR-FRET enzymatic ALK kinase assay, ALK1.
ALK1, sequence (P37023 22-503): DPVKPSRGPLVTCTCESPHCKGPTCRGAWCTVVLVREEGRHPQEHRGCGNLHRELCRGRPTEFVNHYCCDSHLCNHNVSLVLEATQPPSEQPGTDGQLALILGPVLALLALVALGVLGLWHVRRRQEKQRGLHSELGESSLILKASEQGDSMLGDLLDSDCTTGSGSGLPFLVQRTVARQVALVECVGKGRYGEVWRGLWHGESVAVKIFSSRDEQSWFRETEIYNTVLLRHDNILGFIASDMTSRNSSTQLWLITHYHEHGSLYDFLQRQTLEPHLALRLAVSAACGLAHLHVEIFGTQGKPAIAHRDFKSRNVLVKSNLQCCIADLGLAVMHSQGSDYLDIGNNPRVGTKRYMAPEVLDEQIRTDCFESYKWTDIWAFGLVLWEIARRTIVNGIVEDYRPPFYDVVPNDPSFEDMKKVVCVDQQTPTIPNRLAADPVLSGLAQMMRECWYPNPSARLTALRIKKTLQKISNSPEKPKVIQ
The target of assay [3] is T2, ALK2 (Homo sapiens, UniProt Q04771).
T2 sequence (Q04771 21-509): T1 sequence (P37172 21-509) with V1M, Q10P, I121L, E162D, S310P
As to the kind of experiment: TR-FRET enzymatic ALK kinase assay, ALK2.

The target in a further assay is ALK3 (Homo sapiens, UniProt P36894). Description: TR-FRET enzymatic ALK kinase assay, ALK3.
ALK3, sequence (P36894 24-532): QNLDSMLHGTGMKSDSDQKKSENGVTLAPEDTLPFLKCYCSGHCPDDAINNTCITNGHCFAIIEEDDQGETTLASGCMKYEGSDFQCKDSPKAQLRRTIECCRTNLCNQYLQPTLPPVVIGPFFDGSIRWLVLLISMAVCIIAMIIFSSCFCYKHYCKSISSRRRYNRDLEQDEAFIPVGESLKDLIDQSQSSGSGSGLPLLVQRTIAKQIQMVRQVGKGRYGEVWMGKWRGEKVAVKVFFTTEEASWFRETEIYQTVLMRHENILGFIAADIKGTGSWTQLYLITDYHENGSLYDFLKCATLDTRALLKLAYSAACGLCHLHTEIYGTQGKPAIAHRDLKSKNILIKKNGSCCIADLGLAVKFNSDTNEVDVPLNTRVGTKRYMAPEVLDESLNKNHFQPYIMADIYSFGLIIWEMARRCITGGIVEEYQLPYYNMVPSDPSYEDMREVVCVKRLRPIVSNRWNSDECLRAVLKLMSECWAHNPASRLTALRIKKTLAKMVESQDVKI
A further assay deals with T3, ALK4 (Homo sapiens, UniProt P36896).
T3 sequence (P36896 24-505): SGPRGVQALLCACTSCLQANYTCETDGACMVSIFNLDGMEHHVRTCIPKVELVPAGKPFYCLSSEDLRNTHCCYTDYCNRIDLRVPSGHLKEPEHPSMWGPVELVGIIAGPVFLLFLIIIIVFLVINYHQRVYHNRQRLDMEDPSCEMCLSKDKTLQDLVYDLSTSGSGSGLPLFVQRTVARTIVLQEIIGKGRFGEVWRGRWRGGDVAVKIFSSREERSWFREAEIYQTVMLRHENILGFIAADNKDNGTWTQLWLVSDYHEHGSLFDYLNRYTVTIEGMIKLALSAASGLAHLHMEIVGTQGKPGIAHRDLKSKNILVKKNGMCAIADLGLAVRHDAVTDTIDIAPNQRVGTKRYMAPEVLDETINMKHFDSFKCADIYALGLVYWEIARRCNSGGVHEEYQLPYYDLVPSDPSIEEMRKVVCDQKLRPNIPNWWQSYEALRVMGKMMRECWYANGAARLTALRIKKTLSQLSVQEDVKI
Description: TR-FRET enzymatic ALK kinase assay, ALK4.

The target of another assay is T4, ALK5 (Homo sapiens, UniProt P36897).
T4 sequence (P36897 34-503): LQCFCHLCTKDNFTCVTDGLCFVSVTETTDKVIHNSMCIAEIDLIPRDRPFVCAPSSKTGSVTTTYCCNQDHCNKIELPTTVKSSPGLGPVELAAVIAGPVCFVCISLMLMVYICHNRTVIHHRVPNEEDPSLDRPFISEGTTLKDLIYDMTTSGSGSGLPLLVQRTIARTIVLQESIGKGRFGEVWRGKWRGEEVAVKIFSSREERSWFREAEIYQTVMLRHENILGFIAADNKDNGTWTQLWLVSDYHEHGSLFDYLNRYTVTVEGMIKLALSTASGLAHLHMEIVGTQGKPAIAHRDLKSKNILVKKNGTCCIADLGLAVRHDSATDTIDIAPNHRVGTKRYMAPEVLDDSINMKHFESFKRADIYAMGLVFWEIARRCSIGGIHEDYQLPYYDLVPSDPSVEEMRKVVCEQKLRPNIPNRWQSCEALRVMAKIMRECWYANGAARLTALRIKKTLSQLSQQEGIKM
Description: TR-FRET enzymatic ALK kinase assay, ALK5.

In another assay the target is ALK6 (Homo sapiens, UniProt O00238). Description: TR-FRET enzymatic ALK kinase assay, ALK6.
ALK6, sequence (O00238 14-502): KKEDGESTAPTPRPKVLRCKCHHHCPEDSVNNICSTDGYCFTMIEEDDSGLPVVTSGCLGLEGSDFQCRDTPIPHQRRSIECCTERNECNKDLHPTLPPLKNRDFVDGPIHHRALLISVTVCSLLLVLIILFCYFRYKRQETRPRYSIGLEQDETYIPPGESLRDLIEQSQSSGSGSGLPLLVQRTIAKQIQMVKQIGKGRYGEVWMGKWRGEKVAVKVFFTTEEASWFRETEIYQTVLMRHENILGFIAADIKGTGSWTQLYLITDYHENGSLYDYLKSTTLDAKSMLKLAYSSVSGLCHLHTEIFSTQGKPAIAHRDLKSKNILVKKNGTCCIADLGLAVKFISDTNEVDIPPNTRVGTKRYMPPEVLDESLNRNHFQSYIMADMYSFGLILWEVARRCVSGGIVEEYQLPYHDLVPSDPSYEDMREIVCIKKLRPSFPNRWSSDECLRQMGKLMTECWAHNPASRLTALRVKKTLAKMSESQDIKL

Positions count from the first letter of the chain named.

The IC50 is the point on the concentration scale where inhibition reaches its midpoint. Consider `CN1CCC(c2ccc(-c3cnc4c(-c5cccc(C(C)(C)O)c5)cnn4c3)cc2)CC1` [Compound 92, 2-(3-(6-(4-(1-methylpiperidin-4-yl)phenyl)pyrazolo[1,5-a]pyrimidin-3-yl)phenyl)propan-2-ol], for which the IC50 on ALK2 [1] is 0.266 µM; in assay [2], 17 µM; on ALK1 it was 0.091 µM; at ALK2 [3], 0.026 µM; against ALK3, 1.6 µM; against ALK4 it was more than 10 µM. In addition, the IC50 on ALK5 and on ALK6 was more than 10 µM throughout.

In the case of `NS(=O)(=O)c1cccc(-c2cnn3cc(-c4ccc(C5CCNCC5)cc4)cnc23)c1` [Compound 95, 3-(6-(4-(piperidin-4-yl)phenyl)pyrazolo[1,5-a]pyrimidin-3-yl)benzenesulfonamide], the concentration for half-maximal inhibition (IC50) is 1.5 µM at ALK2 [1]; 0.064 µM in assay [2]; 0.52 µM at ALK1; 0.079 µM against ALK2 [3]; 9.7 µM against ALK3; more than 10 µM on ALK4. The IC50 against ALK5 and at ALK6 was more than 10 µM throughout.

Regarding `CC(C)(CN1CCCCC1)Oc1ccc(-c2cnc3c(-c4cccc(S(C)(=O)=O)c4)cnn3c2)cc1` [Compound 101, 6-(4-((2-methyl-1-(piperidin-1-yl)propan-2-yl)oxy)phenyl)-3-(3-(methylsulfonyl)phenyl)pyrazolo[1,5-a]pyrimidine], the concentration for half-maximal inhibition (IC50) on ALK2 [1] stood at 0.203 µM; in assay [2], 3.28 µM; on ALK1, 0.067 µM; against ALK2 [3] it was 0.028 µM; on ALK3, 2.1 µM; on ALK4, 6 µM. Besides, the half-inhibitory concentration (IC50) against ALK5 and on ALK6 was more than 10 µM in each case.

On to `Fc1ccc(-c2cnn3cc(-c4ccc(CCN5CCCCC5)cc4)cnc23)cc1-c1nnn[nH]1` [Compound 78, 3-(4-fluoro-3-(1H-tetrazol-5-yl)phenyl)-6-(4-(2-(piperidin-1-yl)ethyl)phenyl)pyrazolo[1,5-a]pyrimidine], for which the IC50 on ALK2 [1] is 70 µM; in assay [2], 100 µM; against ALK1, 0.15 µM; against ALK2 [3], 0.016 µM; on ALK3, 0.19 µM; against ALK4, more than 10 µM. The IC50 against ALK5 is more than 10 µM; at ALK6, 0.24 µM.

Take `CCNS(=O)(=O)c1cccc(-c2cnn3cc(-c4ccc(N5[C@H](C)CNC[C@@H]5C)cc4)cnc23)c1` [Compound 77, 3-(6-(4-((2R,6S)-2,6-dimethylpiperazin-1-yl)phenyl)pyrazolo[1,5-a]pyrimidin-3-yl)-N-ethylbenzenesulfonamide]: the IC50 is 0.028 µM on ALK2 [1]; 0.423 µM in assay [2]; 0.11 µM against ALK1; 0.031 µM at ALK2 [3]; 2.1 µM against ALK3; 4.3 µM at ALK4. The IC50 against ALK5 and on ALK6 was more than 10 µM in each case.

For the molecule `C[C@@H]1CNC[C@H](C)N1c1ccc(-c2cnc3c(-c4cccc5c(CO)cccc45)cnn3c2)cc1` [Compound 20, (5-(6-(4-((2R,6S)-2,6-dimethylpiperazin-1-yl)phenyl)pyrazolo[1,5-a]pyrimidin-3-yl)naphthalen-1-yl)methanol], the IC50 worked out at 0.014 µM on ALK2 [1]; 1.55 µM in assay [2]; 0.022 µM at ALK1; 0.016 µM against ALK2 [3]; 0.24 µM on ALK3; 3.96 µM against ALK4. The IC50 on ALK5 amounted to 21.7 µM; against ALK6 it was 3.71 µM.

On to `C[C@@H]1CNC[C@H](C)N1c1ccc(-c2cnc3c(-c4cccc5c(C#N)cccc45)cnn3c2)cc1` [Compound 25, 5-(6-(4-((2R,6S)-2,6-dimethylpiperazin-1-yl)phenyl)pyrazolo[1,5-a]pyrimidin-3-yl)-1-naphthonitrile], for which the 50% inhibitory concentration (IC50) amounted to 0.114 µM on ALK2 [1]; 2.58 µM in assay [2]; 0.075 µM against ALK1; 0.027 µM at ALK2 [3]; 0.123 µM on ALK3; 1.21 µM on ALK4. In addition, the IC50 on ALK5 was 5.34 µM; on ALK6, 0.568 µM.

As for `CC(C)(CN1CCCCC1)Oc1ccc(-c2cnc3c(-c4cccc(S(N)(=O)=O)c4)cnn3c2)cc1` [Compound 96, 3-(6-(4-((2-methyl-1-(piperidin-1-yl)propan-2-yl)oxy)phenyl)pyrazolo[1,5-a]pyrimidin-3-yl)benzenesulfonamide], the 50% inhibitory concentration (IC50) on ALK2 [1] stood at 0.152 µM; in assay [2], 0.919 µM; against ALK1, 0.24 µM; on ALK2 [3] it was 0.066 µM; against ALK3, 4.9 µM; on ALK4, 6 µM. The IC50 against ALK5 and against ALK6 was more than 10 µM each time.

For `CNS(=O)(=O)c1cccc(-c2cnn3cc(-c4ccc(N5[C@H](C)CNC[C@@H]5C)cc4)cnc23)c1` [Compound 76, 3-(6-(4-((2R,6S)-2,6-dimethylpiperazin-1-yl)phenyl)pyrazolo[1,5-a]pyrimidin-3-yl)-N-methylbenzenesulfonamide], the 50% inhibitory concentration (IC50) was determined as 0.067 µM on ALK2 [1]; 0.79 µM in assay [2]; 0.058 µM against ALK1; 0.02 µM on ALK2 [3]; 0.89 µM at ALK3; 4.8 µM against ALK4. Further, the IC50 at ALK5 and against ALK6 was more than 10 µM throughout.

Consider `CN1CCC(c2ccc(-c3cnc4c(-c5ccc(S(N)(=O)=O)c6ccccc56)cnn4c3)cc2)CC1` [Compound 80, 4-(6-(4-(1-methylpiperidin-4-yl)phenyl)pyrazolo[1,5-a]pyrimidin-3-yl)naphthalene-1-sulfonamide], for which the IC50 at ALK2 [1] was 1.85 µM; in assay [2] it was more than 100 µM; against ALK1 it was 0.16 µM; at ALK2 [3] it was 0.035 µM; on ALK3, more than 10 µM; on ALK4, more than 10 µM. Also, the IC50 at ALK5 and against ALK6 was more than 10 µM in each case.
